Experimental data: US20110092488A1, “Quninoline Methanol Compounds for the Treatment and Prevention of Parasitic Infections” (priority 2005, published 2011)

Columns and labels:
[1] = system: primary rat forebrain neurons; experiment: Neurocytotoxicity assay (MTT); conditions: for IC50: read-out: Neurotoxicity ranking (IC50 in μM), approximate IC50 from screen at 10, 100 and 1000 μM, MTT
Method: The neurocytotoxicity assay of AAQMs was conducted as per Dow et al.; The antimalarial potential of 4-quinolinecarbinolamines may be limited due to neurotoxicity and cross-resistance in mefloquine-resistant Plasmodium falciparum strains; Chemother. (48) 2624-2632 (2004) and is incorporated herein, by reference. This assay utilizes primary rat forebrain neurons and is a multi-endpoint screen. […] The AAQMs outlined in Table 1 were screened at 10, 100 and 1000 μM in triplicate, and the reduction in viability observed was determined using the 3-(4,5-dimethylthiazol-2-yl)-2,5-diphenyltetrazolium bromide (MTT) assay as per Dow et al., discussed above. Approximate IC50 values were calculated on the basis of the level of inhibition observed at each concentration. Full dose response assays were run for mefloquine and WR069878 with two fold dilutions (n=6 wells per dilution) and 11 dilutions for each drug. IC50s were calculated using Prism. Each time the assay is conducted, 20 μM mefloquine is included, as a control. […] Assays are re-run if the loss of viability induced by mefloquine is <40% or >60%. Neuroprotection experiments with 6,7-dinitroquinoxaline-2,3-dione (DNQX) and magnesium were performed as per Dow et al.; Transcriptional profiling of mefloquine-induced disruption of calcium homeostasis in neurons in vitro; Genomics (86)539-550 (2005), which is incorporated by reference, herein. Neurons were exposed to DNQX (100 μM) or magnesium (12 mM) for 5 min, followed by mefloquine (25 μM) or WR069878 (250 μM) for 20 min after which reduction in cell viability was determined. […] DNQX is an inhibitor of non-N-methyl-D-aspartate (NMDA) receptors, whilst magnesium inhibits the functioning of the inositol 1,4,5-trisphosphate (IP3)-mediated calcium signaling pathway at several points. The effects of mefloquine and WR069878 on neuronal calcium homeostasis were assessed utilizing confocal microscopy as per Dow et al, as discussed in Antimicrob Agents Chemother. (48)2624-2632 (2004), cited above, and incorporated by reference, herein. Briefly neurons were loaded with calcium sensitive dye Fluo 3-A for 1 h and were washed prior to image experiments. Neurons were ‘spiked’ with 100 μM mefloquine or WR069878. Subsequent changes in neuronal calcium homeostasis were recorded as fluctuations in the emitted fluorescence of fluo-3-complexed calcium at 530 nm (excitation was 488 nm). Sequential image scans of fields containing 5-25 neurons were used to construct temporal profiles. Scans were made at 10 s intervals. Fluorescence levels for each neuron were normalized 12 to time zero values. Data were then pooled from three and five independent experiments for mefloquine and WR069878 respectively.

P. falciparum TM91C235 = experiment: In vitro antimalarial activity against P. falciparum TM91C235; format: cell-based, Plasmodium falciparum; conditions: for TM91C235 IC90: Table 2
Method: The in vitro activities of AAQMs against P. falciparum strains W2, D6, TM91C235 and TM90C2A were evaluated using the method of Desjardins et al. as modified by Milhous et al. W2 is chloroquine resistant and mefloquine sensitive, D6 is chloroquine sensitive but naturally less susceptible to mefloquine, TM91C235 is resistant to mefloquine, chloroquine and pyrimethamine as is TM90C2A, however this latter parasite is a two pfmdr1 copy strain. We routinely run mefloquine in this screen as a control to ensure assay validity.

[2] = Method: The AAQMs indicated in Table 1 (10 μM) were added to a mixture containing an NADPH-regenerating buffer (1.25 mM β-NADP+, 3.3 mM glucose-6-phosphate, and 3.3 mM MgCl2) and 0.5 mg/ml pooled human liver microsomes to a final volume of 125 μl. The mixtures were incubated for 5 minutes at 37° C. and the reactions were initiated by adding 25 μl glucose-6-phosphate dehydrogenase to a final concentration of 1 unit/ml. The reactions were maintained at 37° C. until they were terminated by the addition of an equal volume of 100% ice cold acetonitrile at 0, 10, 30, 60, and 120 minutes. Samples were centrifuged to pellet the proteins and the supernatant was analyzed by LC-MS/MS in duplicate using fast LC gradient or isocratic methods. AAQM concentrations were quantified with external calibration, using plots of response v. amount. Chromatograms were analyzed using the mass spectrometry software Xcalibur® QuanBrowser (for ThermoFinnigan® instruments) or MassLynx® (for Waters® instruments). Concentrations of AAQMs remaining at each time point were calculated using the unknown peak areas and corresponding calibration curves. In order to calculate the half-life, a first-order rate of decay was assumed. […] All reagents were purchased from Sigma except for the microsomes, which were obtained from BD Gentest®. For metabolite identification, samples were prepared as described above with human liver microsomes. Additional samples were prepared with for each AAQM using mouse, rat, and rhesus monkey liver microsomes. Samples were separated using an LC gradient method and analyzed by full scan LC-MS and LC-MS/MS. […] These MS/MS data were also used to do preliminary structural elucidation. […] The relative percentage of formation of each metabolite was determined in a semi-quantitative manner since standards of each metabolite were not available. Peak areas of each detected AAQM metabolite and the internal standard were determined, and their ratios were calculated as metabolite area/internal standard area. The percent formation of each metabolite was determined as the area ratio divided by the sum of all the metabolite area ratios.
[3] = system: FVO strain of P. falciparum; experiment: Efficacy in P. falciparum-challenged Aotus monkeys; format: in vivo, Plasmodium falciparum in Aotus lemurinus lemurinus; conditions: 10 mg/kg/day x7 oral; groups of two; Cure = parasite free 90 days; R = average day of recrudescence; Failure = rescued with mefloquine
Method: (§1) The P. berghei-mouse efficacy data were obtained from the WRAIR chemical information system (subcutaneous testing) or from recent tests conducted at AFRIMS, Thailand or at the University of Miami using a modified version of the Thompson test. Groups of five mice were inoculated through i.p. injection on day 0 (usually with 1×106 P. berghei-parasitized erythrocytes). The drugs in Table 1 were administered either subcutaneously or orally for three days (usually on days 3-5) at doses of 1.25-160 mg/kg in two to four fold increments. Cure was defined as survival until day 60 (subcutaneous dosing) or day 31 post-treatment (oral dosing). […] The minimum effective dose was the lowest dose level that cured at least one of five mice. The Aotus studies were performed according to Obaldia; Detection of Klebsiella pnuumoniae antibodies in Aotus l. lemurinus (Panamanian owl monkey) using an enzyme linked immunosorbent assay (ELIA) test; Lab Anim (25)133-141 (1991) and Obaldia et al., WR 238605, chloroquine, and their combinations as blood schizonticides against a chloroquine-resistant strain of Plasmodium vivax in Aotus monkeys; Am. J. Trop. Med. Hyg. (56)508-510 (1997), which are incorporated by reference, herein. Groups of two Aotus lemurinus 6 lemurinus of the karyotype VIII or IX (27) male and female monkeys with weights ranging from 742-970 g were inoculated with 5×10^6 parasites of either the FVO strain of P. falciparum or the AMRU1 strain of P. vivax. Both of these strains are chloroquine resistant. […] Monkeys were examined and thick Giemsa-stained blood smears were prepared and enumerated daily (17) to monitor the course of infection. […] In some instances, a high dose of the test drug was used to retreat monkeys instead of the mefloquine rescue. Monkeys are considered cured if they are parasite free 90 days post treatment. […] Plasma samples were taken from the monkeys in some studies for quantification of metabolites. Additional blood samples were taken as appropriate for complete blood counts and serum chemistry. Research was conducted in compliance with the Animal Welfare Act and other federal statutes and regulations relating to animals and experiments involving animals and adheres to principles stated in the Guide for the Care and Use of Laboratory Animals, NRC Publication, 1996 edition (34).

[4] = Aotus, 10 mg/kg/day oral x7; for Plasma conc on day 1 (ng/ml) 2 h: day 1, 2 h; for Plasma conc on day 1 (ng/ml) 24 h: day 1, 24 h; for Plasma conc. on day 7 (ng/ml) 2 h: day 7, 2 h; for Plasma conc. on day 7 (ng/ml) 24 h: day 7, 24 h
Method: as §1

| Structure (SMILES) | Activity against P. falciparum TM91C235 (IC50 in ng/ml) (P. falciparum TM91C235) | Route of metabolic transformation [2] | Mean peak concentration [4] | Plasma conc on day 1 (ng/ml) 2 h [4] | Plasma conc on day 1 (ng/ml) 24 h [4] | Plasma conc. on day 7 (ng/ml) 2 h [4] | Plasma conc. on day 7 (ng/ml) 24 h [4] | TM91C235 IC90 (P. falciparum TM91C235) | Killing of neurons ([1]; at 1000 microM, FIG. 1) | IC50 [1] | Outcome in Aotus [3] |
| --- | --- | --- | --- | --- | --- | --- | --- | --- | --- | --- | --- |
| O=C(O)c1cc(C(F)(F)F)nc2c(C(F)(F)F)cccc12 [Mefloquine metabolite, reference compound] |  |  |  |  |  |  |  |  | only partial killing |  |  |
| CCCCNCC(O)c1cc(-c2ccc(Cl)cc2)nc2c(Cl)cc(Cl)cc12 (stereo not drawn) [WR007524] | 0.63 ng/mL | not at all |  |  |  |  |  |  |  | 60 µM |  |
| CCCCN(CCCC)CC(O)c1cc(-c2ccc(Cl)cc2)nc2c(Cl)cc(Cl)cc12 (stereo not drawn) [WR029252] | 7.6 ng/mL |  | 44 ng/mL | 67 ng/mL | 1.0 ng/mL | 21 ng/mL | 1.0 ng/mL | 20 ng/mL |  | 600 µM | Failure |
| CCCCN(CCCC)CC(O)c1cc(-c2ccc(Cl)cc2)nc2ccc(Cl)cc12 (stereo not drawn) [WR035058] | 2.7 ng/mL |  | 413 ng/mL | 454 ng/mL | 84 ng/mL | 371 ng/mL | 105 ng/mL | 8.5 ng/mL |  | 600 µM | Cures and Cure |

Continued, in another order:

| Activity against P. falciparum TM91C235 (IC50 in ng/ml) (P. falciparum TM91C235) | Route of metabolic transformation [2] | Mean peak concentration [4] | Plasma conc on day 1 (ng/ml) 2 h [4] | Plasma conc on day 1 (ng/ml) 24 h [4] | Plasma conc. on day 7 (ng/ml) 2 h [4] | Plasma conc. on day 7 (ng/ml) 24 h [4] | TM91C235 IC90 (P. falciparum TM91C235) | Structure (SMILES) | Killing of neurons ([1]; at 1000 microM, FIG. 1) | IC50 [1] | Outcome in Aotus [3] |
| --- | --- | --- | --- | --- | --- | --- | --- | --- | --- | --- | --- |
| 1.1 ng/mL | N-dealkylation |  |  |  |  |  |  | CCN(CC)CC(O)c1cc(-c2ccc(Cl)cc2)nc2c(Cl)cc(Cl)cc12 (stereo not drawn) [WR041294] |  | 60 µM |  |
| 1.6 ng/mL |  |  |  |  |  |  |  | CCCCN(CCCC)CC(O)c1cc(-c2ccc(Cl)cc2)nc2cc(F)ccc12 (stereo not drawn) [WR081049] |  | 200 µM |  |
